# Laboratory results: US7799812B2, “Reverse isoxazoles” (Novartis AG, priority 2006, dated 2010)
# Molecular target: T1, human EDG-1 (S1P1) (Homo sapiens, UniProt P21453)
# T1 construct: c-myc (N); expressed in transfected cells
# Assay: S1P1 (EDG-1) GTP [γ-35S] binding assay, membranes from CHO cells
# Type: biochemical
# Protocol: A. In vitro: GPCR Activation Assay Measuring GTP [γ-^35S] Binding to Membranes Prepared from CHO Cells Expressing Human EDG Receptors
# S1P1 (EDG-1) GTP [γ-^35S] binding assay: Homogenized membranes are prepared from CHO cell clones stably expressing a human EDG-1 N-terminal c-myc tag. Cells are grown in suspension in two 850 cm^2 roller bottles for three or fours days before harvesting. The cells are centrifuged down, washed once with cold PBS, and resuspended in ≦20 ml of Buffer A (20 mM HEPES, pH 7.4, 10 mM EDTA, EDTA-free complete protease inhibitor cocktail [1 tablet/25 ml]). The cell suspension is homogenized on ice, using a Polytron homogenizer at 30000 rpm at three intervals of 15 seconds each. The homogenate is first centrifuged at 2000 rpm on a tabletop low speed centrifuge for 10 minutes. The supernatant, after passing through a cell strainer, is then re-centrifuged at 50,000×g for 25 minutes at 4° C. The pellet is resuspended into buffer B (15% glycerol, 20 mM HEPES, pH 7.4, 0.1 mM EDTA, EDTA-free complete protease inhibitor cocktail [1 tablet/10 ml]). Protein concentration of the preparation is determined using the BCA Protein Assay kit (Pierce) using BSA as standard. The membranes are aliquoted and kept frozen at −80° C.
# Solutions of test compounds ranging from 10 mM to 0.01 nM are prepared in DMSO. S1P is diluted in 4% BSA solution as positive controls. The desired amount of membrane preparation is diluted with ice-cold assay buffer (20 mM HEPES, pH 7.4, 100 mM NaCl, 10 mM MgCl2, 0.1% Fatty acid-free BSA, 5 μM GDP) and vortexed well. 2 μl or less of compound is distributed into each well of a round-bottom 96-well polystyrene assay plate, followed by addition of 100 μl of diluted membranes (3-10 μg/well) and kept on ice until the addition of hot GTPγS. [^35S]-GTPγS is diluted 1:1000 (v/v) with cold assay buffer and 100 μl is added into each well. The reaction is carried out at room temperature for 90 minutes before the membranes are harvested onto Perkin-Elmer Unifilter® GF/B-96 filter plate using a Packard Filtermate Harvester. […]
# T1 sequence (P21453 whole entry): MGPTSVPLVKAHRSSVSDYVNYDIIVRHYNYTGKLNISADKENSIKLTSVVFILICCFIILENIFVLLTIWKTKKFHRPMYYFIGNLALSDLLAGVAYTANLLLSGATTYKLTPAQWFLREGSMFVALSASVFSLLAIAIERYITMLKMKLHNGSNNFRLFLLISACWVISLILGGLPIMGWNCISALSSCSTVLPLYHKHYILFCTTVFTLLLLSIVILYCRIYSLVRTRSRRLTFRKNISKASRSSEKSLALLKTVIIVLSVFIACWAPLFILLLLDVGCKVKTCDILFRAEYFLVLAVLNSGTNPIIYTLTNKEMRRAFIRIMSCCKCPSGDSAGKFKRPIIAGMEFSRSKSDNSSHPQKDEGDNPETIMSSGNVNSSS
row,EC50,SMILES
1,< 1000 nM,NS(=O)(=O)c1ccc(-c2nc(-c3ccc(-c4ccccc4)c(C(F)(F)F)c3)no2)cc1 [Example 13]
2,< 1000 nM,"O=C(O)CCNS(=O)(=O)c1ccc(-c2nc(-c3ccc(-c4ccccc4)c(C(F)(F)F)c3)no2)cc1 [Example 4, 3-{4-[3-(2-Trifluoromethyl-biphenyl-4-yl)-[1,2,4]oxadiazol-5-yl]-benzene-sulfonylamino}-propionic acid]"
3,< 1000 nM,O=C(O)CCC(=O)Nc1ccc(-c2nc(-c3ccc(C4CCCCC4)c(C(F)(F)F)c3)no2)cc1 [Example 21]
